Test results published in publication PMC3174134, “Lucanthone and Its Derivative Hycanthone Inhibit Apurinic Endonuclease-1 (APE1) by Direct Protein Binding” (PLoS ONE, 2011).

Experiments:
[1] = molecular target: T1, human Nth (Homo sapiens, UniProt P78549); test: Cleavage of human Nth by lucanthone (specificity control); settings: data not shown
T1 sequence (P78549 23-304): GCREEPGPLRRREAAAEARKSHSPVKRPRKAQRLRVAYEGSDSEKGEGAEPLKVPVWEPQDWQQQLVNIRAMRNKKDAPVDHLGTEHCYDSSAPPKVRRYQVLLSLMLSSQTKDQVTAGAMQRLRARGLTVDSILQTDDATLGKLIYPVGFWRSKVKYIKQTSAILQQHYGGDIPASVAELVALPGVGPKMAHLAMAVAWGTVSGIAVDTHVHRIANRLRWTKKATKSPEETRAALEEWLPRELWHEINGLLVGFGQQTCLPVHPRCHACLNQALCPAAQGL

[2] = molecular target: E.coli endonuclease IV (Nfo) (Escherichia coli, UniProt P0A6C1); test: Circular dichroism of E.coli Nfo with lucanthone; settings: 140 µM lucanthone, 37°C, 60 min
[3] = molecular target: T2, APE1 mutant proteins (Homo sapiens, UniProt P27695, W280S); test: Cleavage of mutant APE1 proteins by lucanthone, Western blot; settings: 100 µM lucanthone, 37°C, 2 h
T2 construct: made in house
T2 sequence (P27695 2-318 W280S): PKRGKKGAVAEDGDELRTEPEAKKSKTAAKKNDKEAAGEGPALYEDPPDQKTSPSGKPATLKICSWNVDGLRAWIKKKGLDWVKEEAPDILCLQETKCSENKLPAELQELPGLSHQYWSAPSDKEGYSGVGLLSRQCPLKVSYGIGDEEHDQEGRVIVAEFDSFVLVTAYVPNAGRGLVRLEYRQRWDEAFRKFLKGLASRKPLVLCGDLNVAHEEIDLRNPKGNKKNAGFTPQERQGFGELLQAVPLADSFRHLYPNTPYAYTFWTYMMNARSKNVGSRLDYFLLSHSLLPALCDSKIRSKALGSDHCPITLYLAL
Procedure: (§1) Total purified protein concentration was determined by the ratio of A280/A260. 250 ng of APE1 treated with lucanthone or hycanthone (0.05–100 µM) for 2 h at 37°C in final volume of 30 µl were mixed with an equal volume of gel loading buffer (0.001% bromophenol blue, 4% SDS, 10% 2-ME, 20% glycerol, and 125 mM Tris pH 6.8) and denatured at 95°C for 5 min. Total protein concentration in cell extracts was determined using the Bradford assay (BioRad, Hercules, CA) and 25 µg of total protein from soluble or insoluble cell fractions were mixed with an equal volume of gel loading buffer (0.001% bromophenol blue, 4% SDS, 10% 2-ME, 20% glycerol, and 125 mM Tris pH 6.8) and denatured at 95°C for 5 min. This mixture was separated by SDS-PAGE (4% stacking, 7.5% resolving gel) for 2–3 h at 40 mA on a BioRad MiniPROTEAN II Electrophoresis Cell. To detect proteins, proteins were transferred onto a trans-Blot nitrocellulose membrane (0.45 µm; BioRad) overnight at 4°C at 15 mA in standard Tris-Glycine buffer containing 20% ethanol. […] Chemi-luminescence was developed using an ECL kit according to the manufacturer's instructions and detected by exposing the blot to HyperfilmECL for 30 s–3 min. […]

[4] = test system: APE1 mutant proteins; test: as above; set-up: species or system human; settings: 100 µM lucanthone, 37°C, 2 h
Procedure: as §1

CCN(CC)CCNc1ccc(C)c2sc3ccccc3c(=O)c12 [lucanthone, 1-[2-diethylaminoethylamino]-4-methylthioxanthen-9-one]
Cleavage of human Nth [1]: did not observe any cleavage
Conformational change of E.coli Nfo (CD) [2]: little conformational changes
Cleavage of W280S mutant [3]: significant cleavage
Cleavage of hydrophobic site mutants except W280S [4]: did not undergo cleavage
